Assay results from patent US10414811B2, “Protease-resistant lipidated GLP-1 analogs” (MEDIMMUNE LIMITED, priority 2015, dated 2019).
pEC50: −log10 of the molar value. Like-named read-outs stand apart in the source and are kept apart here. Numbered stars: 1 amine (or outer) side, 2 acyl side, 3 side chain; on linkers, the order of the positions; unused ones are H or OH. Square brackets hold non-standard residues; d marks the D form. Side chains are listed from the residue outwards. Peptide text beside a SMILES is read from it. * marks the point of attachment. γGlu = O=C(O)[C@H](CCC(=O)[*:2])N[*:1]; Stearoyl = CCCCCCCCCCCCCCCCCC(=O)*; Palmitoyl = CCCCCCCCCCCCCCCC(=O)*; αMeF = C[C@](N)(Cc1ccccc1)C(=O)O; αMeK = C[C@](N)(CCCCN)C(=O)O; αMeS = C[C@](N)(CO)C(=O)O; AEEA = NCCOCCOCC(=O)O; Aib = CC(C)(N)C(=O)O

Key:
Format in all cases: cell-based
[1] = target: T1, human glucagon receptor (GCGR) (Homo sapiens, UniProt P47871); test: cAMP assay, human GCGR cells; conditions: cAMP assay
T1 construct: expressed in transfected cells
T1 sequence (P47871 26-477): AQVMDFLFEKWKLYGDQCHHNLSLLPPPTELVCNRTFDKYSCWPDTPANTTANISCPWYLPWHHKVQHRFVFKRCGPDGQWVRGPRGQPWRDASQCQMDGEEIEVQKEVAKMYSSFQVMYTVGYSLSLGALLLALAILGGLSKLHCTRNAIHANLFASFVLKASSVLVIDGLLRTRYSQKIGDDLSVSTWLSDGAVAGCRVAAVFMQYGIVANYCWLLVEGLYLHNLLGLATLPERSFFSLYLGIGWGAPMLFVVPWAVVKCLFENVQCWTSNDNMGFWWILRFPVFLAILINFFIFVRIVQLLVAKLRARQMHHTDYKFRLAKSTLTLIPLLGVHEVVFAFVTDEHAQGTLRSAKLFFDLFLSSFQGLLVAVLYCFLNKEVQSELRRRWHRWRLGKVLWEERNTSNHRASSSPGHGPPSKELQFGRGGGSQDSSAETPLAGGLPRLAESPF
Procedure, shortened: (§1)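 Peptide-stimulated cAMP measured by two-step HTRF after a 30 min room-temperature incubation with receptor-expressing cells (hGLP-1R, hGIPR at 1×10^5 cells/ml; hGCGR at 2×10^5 cells/ml). Duplicate dilutions; EC50 from 4-parameter logistic fit of % Delta F.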

GLP-1R (INS1e assay) = target: T2, GLP-1R (INS1e assay) (Rattus norvegicus, UniProt P32301); test: INS1e assay, cAMP activity at GLP-1R; conditions: mono-lipidated peptides; for EC50: mean of n1 and n2, read-out: INS1e assay EC50 Mean pM GLP-1R
T2 construct: endogenous in cells; host or cells: INS-1E cells
T2 sequence (P32301 22-463): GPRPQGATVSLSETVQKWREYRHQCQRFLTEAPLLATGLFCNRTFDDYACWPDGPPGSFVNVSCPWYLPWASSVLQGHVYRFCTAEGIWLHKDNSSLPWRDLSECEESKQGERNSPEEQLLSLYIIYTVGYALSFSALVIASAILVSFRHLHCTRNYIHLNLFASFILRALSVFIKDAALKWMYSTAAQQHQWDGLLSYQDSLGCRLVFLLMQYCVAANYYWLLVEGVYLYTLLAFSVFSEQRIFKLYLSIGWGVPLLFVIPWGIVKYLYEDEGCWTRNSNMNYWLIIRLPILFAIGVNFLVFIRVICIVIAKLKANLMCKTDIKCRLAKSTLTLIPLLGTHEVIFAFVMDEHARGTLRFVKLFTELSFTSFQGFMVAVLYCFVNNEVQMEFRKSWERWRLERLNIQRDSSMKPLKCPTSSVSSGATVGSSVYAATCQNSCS
Experimental: cAMP levels are measured using a commercially available cAMP dynamic 2 HTRF kit (Cisbio, Cat #62AM4PEJ), following the two step protocol as per manufacturer's recommendations. In brief; anti-cAMP cryptate (donor fluorophore) and cAMP-d2 (acceptor fluorophore) are made up separately by diluting each 1/20 in conjugate & lysis buffer provided in the kit. 5 μL anti-cAMP cryptate is added to wells of the assay plate, and 5 μL cAMP-d2 is added to wells except non-specific binding (NSB) wells, to which conjugate and lysis buffer are added. […] EC50 values of the synthetic peptides determined in cAMP assays are then determined.

[2] = target: T3, human glucose-dependent insulinotropic peptide receptor (GIPR) (Homo sapiens, UniProt P48546); test: cAMP assay, human GIPR cells; conditions: cAMP assay
T3 construct: expressed in transfected cells
T3 sequence (P48546 22-466): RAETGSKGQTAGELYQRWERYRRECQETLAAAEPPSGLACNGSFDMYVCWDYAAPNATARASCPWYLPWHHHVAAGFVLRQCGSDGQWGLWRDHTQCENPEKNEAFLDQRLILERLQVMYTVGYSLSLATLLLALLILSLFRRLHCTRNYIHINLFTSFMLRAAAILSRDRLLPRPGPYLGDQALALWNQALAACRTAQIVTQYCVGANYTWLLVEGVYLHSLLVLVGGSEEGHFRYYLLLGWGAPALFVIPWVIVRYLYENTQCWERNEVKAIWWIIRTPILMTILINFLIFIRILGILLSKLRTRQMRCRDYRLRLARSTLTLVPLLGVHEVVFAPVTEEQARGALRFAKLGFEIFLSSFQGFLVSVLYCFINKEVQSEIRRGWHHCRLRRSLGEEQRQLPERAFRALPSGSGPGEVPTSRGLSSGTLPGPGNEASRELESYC
Procedure, shortened: as §1

[3] = first determination (n1), read-out: Primary assay EC50 Gluc-R (n1)
[4] = second determination (n2), read-out: Primary assay EC50 Gluc-R (n2)
[5] = replicate n1, read-out: INS1e assay EC50 GLP-1R n1
[6] = replicate n2, read-out: INS1e assay EC50 GLP-1R n2
[7] = first determination (n1), read-out: Primary assay EC50 GIP-R (n1)
[8] = second determination (n2), read-out: Primary assay EC50 GIP-R (n2)

Structure (SMILES)	pEC50 [1, 3]	pEC50 [1, 4]	EC50 (GLP-1R (INS1e assay)) [pM]	pEC50 (GLP-1R (INS1e assay); [5])	pEC50 (GLP-1R (INS1e assay); [6])	pEC50 [2, 7]	pEC50 [2, 8]
CC[C@H](C)[C@H](NC(=O)[C@](C)(Cc1ccccc1)NC(=O)[C@H](CCC(=O)O)NC(=O)[C@](C)(CCCCN)NC(=O)[C@H](C)NC(=O)[C@H](C)NC(=O)[C@H](CCC(=O)O)NC(=O)CNC(=O)[C@H](CCC(=O)O)NC(=O)[C@H](CC(C)C)NC(=O)[C@](C)(Cc1ccccc1)NC(=O)[C@H](CO)NC(=O)[C@](C)(CO)NC(=O)[C@@H](NC(=O)[C@H](CC(=O)O)NC(=O)[C@H](CO)NC(=O)[C@@H](NC(=O)[C@](C)(Cc1ccccc1)NC(=O)[C@H](CO)NC(=O)CNC(=O)[C@H](CCC(=O)O)NC(=O)C(C)(C)NC(=O)[C@@H](N)Cc1c[nH]cn1)[C@@H](C)O)C(C)C)C(=O)N[C@@H](C)C(=O)N[C@@](C)(Cc1ccccc1)C(=O)N[C@H](C(=O)N[C@H](C(=O)N[C@@H](CCC(=O)O)C(=O)NCC(=O)NCC(N)=O)C(C)C)C(C)C [compound 43] (H-H[Aib]EGS[αMeF]TSDV[αMeS]S[αMeF]LEGEAA[αMeK]E[αMeF]IA[αMeF]VVEGG-NH2)	≤ 7.51	≤ 7.51	13	10.80	10.98	≤ 7.51	≤ 7.51
CCCCCCCCCCCCCCCCCC(=O)NCCOCCOCC(=O)NCCOCCOCC(=O)NCCOCCOCC(=O)NCCCC[C@H](NC(=O)[C@H](C)NC(=O)[C@H](C)NC(=O)[C@H](CCC(=O)O)NC(=O)CNC(=O)[C@H](CCC(=O)O)NC(=O)[C@H](CC(C)C)NC(=O)[C@H](Cc1ccc(O)cc1)NC(=O)[C@H](CO)NC(=O)[C@](C)(CO)NC(=O)[C@@H](NC(=O)[C@H](CC(=O)O)NC(=O)[C@H](CO)NC(=O)[C@@H](NC(=O)[C@](C)(Cc1ccccc1)NC(=O)[C@H](CO)NC(=O)CNC(=O)[C@H](CCC(=O)O)NC(=O)C(C)(C)NC(=O)[C@@H](N)Cc1c[nH]cn1)[C@@H](C)O)C(C)C)C(=O)N[C@@H](CCC(=O)O)C(=O)N[C@@](C)(Cc1ccccc1)C(=O)N[C@H](C(=O)N[C@@H](C)C(=O)N[C@@](C)(Cc1ccccc1)C(=O)N[C@H](C(=O)N[C@H](C(=O)N[C@@](C)(CCCCN)C(=O)NCC(=O)NCC(N)=O)C(C)C)C(C)C)[C@@H](C)CC [compound 53] (H-H[Aib]EGS[αMeF]TSDV[αMeS]SYLEGEAAK([AEEA-AEEA-AEEA-Stearoyl])E[αMeF]IA[αMeF]VV[αMeK]GG-NH2)	≤ 7.59	≤ 7.59	7	11.20	11.09	≤ 7.59	≤ 7.59
CCCCCCCCCCCCCCCCCC(=O)NCCOCCOCC(=O)NCCOCCOCC(=O)NCCOCCOCC(=O)NCCCC[C@H](NC(=O)[C@H](C)NC(=O)[C@H](C)NC(=O)[C@H](CCC(=O)O)NC(=O)CNC(=O)[C@H](CCC(=O)O)NC(=O)[C@H](CC(C)C)NC(=O)[C@](C)(Cc1ccccc1)NC(=O)[C@H](CO)NC(=O)[C@](C)(CO)NC(=O)[C@@H](NC(=O)[C@H](CC(=O)O)NC(=O)[C@H](CO)NC(=O)[C@@H](NC(=O)[C@](C)(Cc1ccccc1)NC(=O)[C@H](CO)NC(=O)CNC(=O)[C@H](CCC(=O)O)NC(=O)C(C)(C)NC(=O)[C@@H](N)Cc1c[nH]cn1)[C@@H](C)O)C(C)C)C(=O)N[C@@H](CCC(=O)O)C(=O)N[C@@H](Cc1ccccc1)C(=O)N[C@H](C(=O)N[C@@H](C)C(=O)N[C@@](C)(Cc1ccccc1)C(=O)N[C@H](C(=O)N[C@H](C(=O)N[C@@](C)(CCCCN)C(=O)NCC(=O)NCC(N)=O)C(C)C)C(C)C)[C@@H](C)CC [compound 54]	≤ 7.59	≤ 7.59	6	11.57	11.08	≤ 7.59	≤ 7.59
CCCCCCCCCCCCCCCC(=O)N[C@@H](CCC(=O)NCCCC[C@H](NC(=O)[C@H](CCC(=O)O)NC(=O)[C@H](CC(C)C)NC(=O)[C@](C)(Cc1ccccc1)NC(=O)[C@H](CO)NC(=O)[C@](C)(CO)NC(=O)[C@@H](NC(=O)[C@H](CC(=O)O)NC(=O)[C@H](CO)NC(=O)[C@@H](NC(=O)[C@](C)(Cc1ccccc1)NC(=O)[C@H](CO)NC(=O)CNC(=O)[C@H](CCC(=O)O)NC(=O)C(C)(C)NC(=O)[C@@H](N)Cc1c[nH]cn1)[C@@H](C)O)C(C)C)C(=O)N[C@@H](CCC(=O)O)C(=O)N[C@@H](C)C(=O)N[C@@H](C)C(=O)N[C@@](C)(CCCCN)C(=O)N[C@@H](CCC(=O)O)C(=O)N[C@@](C)(Cc1ccccc1)C(=O)N[C@H](C(=O)N[C@@H](C)C(=O)N[C@@](C)(Cc1ccccc1)C(=O)N[C@H](C(=O)N[C@H](C(=O)N[C@@](C)(CCCCN)C(=O)NCC(=O)NCC(N)=O)C(C)C)C(C)C)[C@@H](C)CC)C(=O)O [compound 84] (H-H[Aib]EGS[αMeF]TSDV[αMeS]S[αMeF]LEK([γGlu-Palmitoyl])EAA[αMeK]E[αMeF]IA[αMeF]VV[αMeK]GG-NH2)	≤ 7.57	≤ 7.57	560	9.34	9.18	≤ 7.57	≤ 7.57
CCCCCCCCCCCCCCCC(=O)N[C@@H](CCC(=O)NCCCC[C@H](NC(=O)[C@H](CC(=O)O)NC(=O)[C@H](CO)NC(=O)[C@@H](NC(=O)[C@](C)(Cc1ccccc1)NC(=O)[C@H](CO)NC(=O)CNC(=O)[C@H](CCC(=O)O)NC(=O)C(C)(C)NC(=O)[C@@H](N)Cc1c[nH]cn1)[C@@H](C)O)C(=O)N[C@@](C)(CO)C(=O)N[C@@H](CO)C(=O)N[C@@](C)(Cc1ccccc1)C(=O)N[C@@H](CC(C)C)C(=O)N[C@@H](CCC(=O)O)C(=O)NCC(=O)N[C@@H](CCC(=O)O)C(=O)N[C@@H](C)C(=O)N[C@@H](C)C(=O)N[C@@](C)(CCCCN)C(=O)N[C@@H](CCC(=O)O)C(=O)N[C@@](C)(Cc1ccccc1)C(=O)N[C@H](C(=O)N[C@@H](C)C(=O)N[C@@](C)(Cc1ccccc1)C(=O)N[C@H](C(=O)N[C@H](C(=O)N[C@@](C)(CCCCN)C(=O)NCC(=O)NCC(N)=O)C(C)C)C(C)C)[C@@H](C)CC)C(=O)O [compound 90] (H-H[Aib]EGS[αMeF]TSDK([γGlu-Palmitoyl])[αMeS]S[αMeF]LEGEAA[αMeK]E[αMeF]IA[αMeF]VV[αMeK]GG-NH2)	≤ 7.55	≤ 7.55	51	10.36	10.23	≤ 7.55	≤ 7.55
CC[C@H](C)[C@H](NC(=O)[C@](C)(Cc1ccccc1)NC(=O)[C@H](CCC(=O)O)NC(=O)[C@H](CCCCNC(=O)COCCOCCNC(=O)COCCOCCNC(=O)CC[C@H](NC(=O)CCCCCCCCCCCCCCC(=O)O)C(=O)O)NC(=O)[C@H](C)NC(=O)[C@H](C)NC(=O)[C@H](CCC(=O)O)NC(=O)CNC(=O)[C@H](CCC(=O)O)NC(=O)[C@H](CC(C)C)NC(=O)[C@](C)(Cc1ccccc1)NC(=O)[C@H](CO)NC(=O)[C@](C)(CO)NC(=O)[C@@H](NC(=O)[C@H](CC(=O)O)NC(=O)[C@H](CO)NC(=O)[C@@H](NC(=O)[C@](C)(Cc1ccccc1)NC(=O)[C@H](CO)NC(=O)CNC(=O)[C@H](CCC(=O)O)NC(=O)C(C)(C)NC(=O)[C@@H](N)Cc1c[nH]cn1)[C@@H](C)O)C(C)C)C(=O)N[C@@H](C)C(=O)N[C@@](C)(Cc1ccccc1)C(=O)N[C@H](C(=O)N[C@H](C(=O)N[C@@](C)(CCCCN)C(=O)NCC(=O)NCC(N)=O)C(C)C)C(C)C [compound 109]	≤ 7.59	≤ 7.59	6330	8.08	8.36	≤ 7.59	≤ 7.59
